According to ChEMBL document CHEMBL5303304, “EUbOPEN Chemogenomics Library - IncuCyte” (2023):

Key:
Type in all cases: toxicity, cell-based
Fibroblast = assay: Incucyte cell viability with human fibroblast; settings: 10 µM, compound concentration 10 uM
U2OS = assay: Incucyte cell viability with U2OS; settings: human, 10 µM, compound concentration 10 uM
HEK-293T = assay: Incucyte cell viability with HEK293T; settings: human, 10 µM, compound concentration 10 uM
Further: unitless GR value; below 1 slowed growth and below 0 cell loss.

Compound	Growth Rate (Fibroblast; 0 h, replicate number 1)	Growth Rate (Fibroblast; 6 h, replicate number 1)	Growth Rate (Fibroblast; 12 h, replicate number 2)	Growth Rate (Fibroblast; 18 h, replicate number 1)	Growth Rate (Fibroblast; 24 h, replicate number 2)	Growth Rate (U2OS; 0 h, replicate number 1)	Growth Rate (U2OS; 0 h, replicate number 2)	Growth Rate (U2OS; 24 h, replicate number 1)	Growth Rate (HEK-293T; 0 h, replicate number 1)	Growth Rate (Fibroblast; 6 h, replicate number 2)	Growth Rate (Fibroblast; 18 h, replicate number 2)	Growth Rate (HEK-293T; 0 h, replicate number 2)	Growth Rate (HEK-293T; 6 h, replicate number 2)	Growth Rate (HEK-293T; 12 h, replicate number 1)	Growth Rate (HEK-293T; 12 h, replicate number 2)	Growth Rate (HEK-293T; 18 h, replicate number 1)	Growth Rate (HEK-293T; 18 h, replicate number 2)	Growth Rate (HEK-293T; 24 h, replicate number 1)	Growth Rate (HEK-293T; 24 h, replicate number 2)	Growth Rate (U2OS; 24 h, replicate number 2)	other results
CCOC(=O)c1c(/C(C#N)=C\N)c2ccc(Cl)c(Cl)c2n1C	0.55	-0.96	0.88	0.7	0.9	-0.98	0.82	0.94	0.22	–	–	–	–	–	–	–	–	–	–	–	Growth Rate (Fibroblast; 24 h, replicate number 1): 0.75; Growth Rate (U2OS; 6 h, replicate number 1): 0.92; Growth Rate (U2OS; 12 h, replicate number 1): 0.97
CN[C@@H](C)C(=O)N[C@H]1CCCC[C@H]2CC[C@@H](C(=O)N[C@@H](c3ccccc3)c3cn(CCCCc4ccc(CCCCn5cc([C@@H](NC(=O)[C@@H]6CC[C@@H]7CCCC[C@H](NC(=O)[C@H](C)NC)C(=O)N76)c6ccccc6)nn5)cc4)nn3)N2C1=O	0.3	–	0.88	0.61	0.66	-0.95	-0.89	–	0.64	0.06	0.55	0.24	0.99	0.83	0.77	0.72	0.74	0.65	0.84	–	–
COc1cc(/C=C(\C#N)C(=O)Nc2nnc(C(F)(F)F)s2)ccc1OCc1ccc(C(F)(F)F)cc1C(F)(F)F	-0.12	–	0.17	0.9	0.86	0.49	–	0.97	0.87	–	0.84	–	0.92	0.72	0.82	0.91	–	1	0.98	0.87	Growth Rate (Fibroblast; 12 h, replicate number 1): -0.69; Growth Rate (Fibroblast; 24 h, replicate number 1): 0.17; Growth Rate (U2OS; 6 h, replicate number 1): 0.84; Growth Rate (U2OS; 6 h, replicate number 2): 0.63; Growth Rate (U2OS; 12 h, replicate number 2): 0.81; Growth Rate (U2OS; 18 h, replicate number 2): 0.85; Growth Rate (HEK-293T; 6 h, replicate number 1): 0.32
Cc1[nH]nc2ccc(-c3cncc(OCC(N)Cc4c[nH]c5ccccc45)c3)cc12 (stereo not given)	–	-1	–	–	0.21	–	0.54	0.09	-0.53	–	0.88	-0.56	–	–	0.41	0.65	0.08	0.19	-0.02	0.13	Growth Rate (U2OS; 18 h, replicate number 1): 0.51
Cc1[nH]nc2ccc(-c3cncc(OCC(N)Cc4ccccc4)c3)cc12 (stereo not given)	–	-1	–	–	0.73	–	–	0.35	-0.76	–	–	-0.85	–	–	–	–	0.44	0.9	0.21	0.28	Growth Rate (Fibroblast; 0 h, replicate number 2): -0.26; Growth Rate (U2OS; 18 h, replicate number 2): 0.7
Nc1ccc(-c2cnc(N)c(-c3ccc(Cl)cc3)c2)cn1	0.71	-1	–	–	–	-0.24	-0.83	–	-0.26	–	–	-0.3	–	–	–	–	0.92	–	0.78	–	Growth Rate (Fibroblast; 0 h, replicate number 2): -0.5
CCCOc1cnc(CN/C=C2\C(=O)NC(=O)c3ccc(I)cc32)cc1O	0.29	-0.88	-0.06	–	0.16	–	-1	0.07	0.51	-0.38	0.1	–	-0.9	-0.75	-0.74	-0.63	-0.6	-0.58	-0.47	0	Growth Rate (Fibroblast; 12 h, replicate number 1): -0.79; Growth Rate (Fibroblast; 24 h, replicate number 1): 0.11; Growth Rate (U2OS; 12 h, replicate number 1): 0.89; Growth Rate (U2OS; 12 h, replicate number 2): 0.75; Growth Rate (U2OS; 18 h, replicate number 1): 0.45; Growth Rate (U2OS; 18 h, replicate number 2): 0.38; Growth Rate (HEK-293T; 6 h, replicate number 1): -0.81
Nc1nccc(-c2ccn3c(N)nccc23)n1	0.88	0.9	–	0.49	–	–	-0.76	–	-0.56	–	–	-0.48	–	–	–	–	–	0.97	–	–	Growth Rate (Fibroblast; 12 h, replicate number 1): -0.17; Growth Rate (U2OS; 12 h, replicate number 1): 0.76; Growth Rate (U2OS; 18 h, replicate number 1): 0.84
CCN1C(=CC(C)=O)Sc2ccc(OC)cc21	0.98	–	–	–	–	–	–	–	0.95	0.95	–	0.69	0.47	0.47	0.28	0.25	0.43	0.2	0.46	–	Growth Rate (Fibroblast; 0 h, replicate number 2): 0.16; Growth Rate (U2OS; 12 h, replicate number 2): 0.9; Growth Rate (HEK-293T; 6 h, replicate number 1): 0.07
COC[C@@H](CC(C)C)NC1=N/C(=C\c2ccc3ncsc3c2)C(=O)N1C	–	-0.97	0.07	0.63	0.51	0.04	–	0.37	0.16	0.03	0.3	0.12	0.4	-0.18	0.3	0.35	0.69	0.68	0.6	0.28	Growth Rate (U2OS; 12 h, replicate number 1): 0.73; Growth Rate (U2OS; 12 h, replicate number 2): 0.64; Growth Rate (U2OS; 18 h, replicate number 1): 0.43; Growth Rate (U2OS; 18 h, replicate number 2): 0.37; Growth Rate (HEK-293T; 6 h, replicate number 1): 0.37
O=C(Nc1cc(-c2cn[nH]c2)ccc1N1CCOCC1)c1ccc(-c2ccc3ncccc3c2)o1	-0.23	-1	0.42	–	0.77	–	-0.65	0.44	0.85	–	0.64	0.49	-0.29	-0.07	-0.19	0.02	0.04	-0.01	0.06	0.4	Growth Rate (U2OS; 12 h, replicate number 2): 0.75; Growth Rate (U2OS; 18 h, replicate number 1): 0.39; Growth Rate (HEK-293T; 6 h, replicate number 1): -0.44
CN(C)Cc1cccc(NC(=C2C(=O)Nc3cc(C(N)=O)ccc32)c2ccccc2)c1	-0.09	–	0.87	-0.83	–	–	-0.78	–	0.9	0.24	–	-0.24	–	–	–	–	–	–	–	–	Growth Rate (Fibroblast; 12 h, replicate number 1): -0.97; Growth Rate (Fibroblast; 24 h, replicate number 1): 0.13
